Read-outs that look alike come from different tables or passages of the source.
Assays:
IL-1β = test: PBMC assay: inhibition of IL-1β release after LPS stimulation (MSD); assay type: cell-based; settings: human PBMCs, 100 ng/ml LPS for 6 hrs, MSD, 96 well plates, read-out: IL1β IC50
Description: Peripheral venous blood s collected from health individuals and human peripheral blood mononuclear cells (PBMCs) ere isolated from blood by Ficoll Histopaque (Sigma-Aldrich, A0561) density gradient centrifugation. After isolation, PBMCs were stored in liquid nitrogen for later use. Upon thawing, PBMC cell viability was determined in growth medium (RPMI media supplemented with 10% fetal bovine serum, 1% Pen-Strep and 1% L-glutamine). […] PBMCs were added at a density of 7.5×10^4 cells per well and incubated for 30 min in a 5% CO2 incubator at 37° C. LPS stimulation was performed by addition of 100 ng/ml LPS (final concentration, Invivogen, tlrl-smlps) for 6 hrs followed by collection of cellular supernatant and the analysis of IL-1β (μM) and TNF cytokines levels (μM) via MSD technology according to manufacturers' guidelines (MSD, K151A0H).
(§1) The IC50 values (for IL-1β) and EC50 values (TNF) were obtained on compounds of the invention/examples, and are depicted in the following table: […]

TNF = test: PBMC assay: TNF cytokine levels after LPS stimulation (MSD); assay type: cell-based; settings: human PBMCs, 100 ng/ml LPS for 6 hrs
Description: Peripheral venous blood s collected from health individuals and human peripheral blood mononuclear cells (PBMCs) ere isolated from blood by Ficoll Histopaque (Sigma-Aldrich, A0561) density gradient centrifugation. After isolation, PBMCs were stored in liquid nitrogen for later use. Upon thawing, PBMC cell viability was determined in growth medium (RPMI media supplemented with 10% fetal bovine serum, 1% Pen-Strep and 1% L-glutamine). Compounds were spotted in a 1:3 serial dilution in DMSO and diluted to the final concentration in 30 μl medium in 96 well plates (Falcon, 353072). PBMCs were added at a density of 7.5×10^4 cells per well and incubated for 30 min in a 5% CO2 incubator at 37° C. LPS stimulation was performed by addition of 100 ng/ml LPS (final concentration, Invivogen, tlrl-smlps) for 6 hrs followed by collection of cellular supernatant and the analysis of IL-1β (μM) and TNF cytokines levels (μM) via MSD technology according to manufacturers' guidelines (MSD, K151A0H).
as §1

SMILES | IC50 (IL-1β; Homo sapiens, PBMC, 6 h) | EC50 (TNF; Homo sapiens, PBMC, 6 h) | IC50 (IL-1β) | EC50 (TNF)
CC[C@H](C)c1nn(CC(=O)Nc2ccc3nncn3c2)c(=O)c2ccc(C(F)(F)F)cc12 (single isomer, unassigned) [Final Cpd X43] | 374 nM | > 20000 nM | – | –
Cn1nc(NC(=O)Cn2nc(C3CC3)c3cc(C(F)(F)F)ccc3c2=O)ccc1=O [Final Cpd X93] | 1010 nM | > 20000 nM | – | –
CC(C)c1nn(CC(=O)Nc2ccc3cnn(C)c3c2)c(=O)c2ccc(C(F)(F)F)cc12 [Final Cpd X114] | 1940 nM | > 20000 nM | – | –
O=C(Cn1nc(C2(F)CC2)c2cc(C(F)(F)F)ccc2c1=O)Nc1ccc2nncn2c1 [Final Cpd X142] | 4740 nM | > 20000 nM | – | –
C[C@]1(O)C[C@@H](NC(=O)Cn2nc(C3(F)CC3)c3cc(C(F)(F)F)ccc3c2=O)C1 [Final Cpd X134] | 3410 nM | > 20000 nM | – | –
CC(C)c1nn(CC(=O)N[C@H]2C[C@H](O)C2)c(=O)c2ccc(C(F)(F)F)cc12 [Final Cpd X94] | 1070 nM | > 20000 nM | – | –
CC(C)c1nn(CC(=O)N[C@@H]2C[C@H](O)CN(C)C2)c(=O)c2ccc(C(F)(F)F)cc12 (mixture of isomers) [Final Cpd X133] | – | – | 3380 nM | > 20000 nM
CC(C)c1nn(CC(=O)N[C@@H]2CCc3nncn3C2)c(=O)c2ccc(C(F)(F)F)cc12 [Final Cpd X106] | 1610 nM | > 20000 nM | – | –
CC(C)c1nn(CC(=O)N[C@H]2C[C@H](C(C)(C)O)C2)c(=O)c2ccc(C(F)(F)F)cc12 [Final Cpd X99] | 1160 nM | > 20000 nM | – | –
CCc1nn(CC(=O)Nc2ccnnc2)c(=O)c2ccc(C(F)(F)F)cc12 [Final Cpd X30] | 219 nM | > 20000 nM | – | –
CC(C)c1nn(CC(=O)N[C@H]2CCc3nncn3C2)c(=O)c2ccc(C(F)(F)F)cc12 [Final Cpd X55] | 460 nM | > 20000 nM | – | –
CC(c1nn(CC(=O)N[C@H]2C[C@@](C)(O)C2)c(=O)c2ccc(C(F)(F)F)cc12)C(F)(F)F (some centres unmarked) [Final Cpd X85] | 915 nM | > 20000 nM | – | –
CCc1nn(CC(=O)N[C@H]2C[C@@](C)(O)C2)c(=O)c2ccc(Br)cc12 [Final Cpd 18] | 30 nM | > 10000 nM | – | –
CO[C@H]1CC[C@@H](NC(=O)Cn2nc(C(C)C)c3cc(C(F)(F)F)ccc3c2=O)CC1 [Final Cpd X131] | 3090 nM | > 20000 nM | – | –
CC(C)c1nn(CC(=O)Nc2ccc3nncn3c2)c(=O)c2ccc(C3CC3)cc12 [Final Cpd 31] | 103 nM | 13600 nM | – | –
CC(O)c1nn(CC(=O)Nc2ccncn2)c(=O)c2ccc(C(F)(F)F)cc12 (centres unmarked) [Final Cpd X103] | 1320 nM | > 20000 nM | – | –
CC(C)c1nn(CC(=O)Nc2ccc3ncn(C)c3c2)c(=O)c2ccc(C(F)(F)F)cc12 [Final Cpd X25] | 178 nM | > 20000 nM | – | –

SMILES | IC50 (IL-1β; Homo sapiens, PBMC, 6 h) | EC50 (TNF; Homo sapiens, PBMC, 6 h) | IC50 (IL-1β) | EC50 (TNF)
CC(C)c1nn(CC(=O)NC2CCC(C)(C)OC2)c(=O)c2ccc(C(F)(F)F)cc12 (centres unmarked) [Final Cpd X128] | 2950 nM | > 20000 nM | – | –
CC(C)c1nn(CC(=O)Nc2ncc3nc[nH]c3n2)c(=O)c2ccc(C(F)(F)F)cc12 [Final Cpd X1, 2-(4-isopropyl-1-oxo-6-(trifluoromethyl)phthalazin-2(1H)-yl)-N-(9H-purin-2-yl)acetamide] | – | > 20000 nM | – | –
CCN1CC[C@@H](NC(=O)Cn2nc(C(C)C)c3cc(C(F)(F)F)ccc3c2=O)[C@@H](O)C1 (single isomer, unassigned) [Final Cpd X139] | 4280 nM | > 20000 nM | – | –
CC(C)c1nn(CC(=O)Nc2cnc3nccn3c2)c(=O)c2ccc(C(F)(F)F)cc12 [Final Cpd X73] | 792 nM | > 20000 nM | – | –
CCc1nn(CC(=O)Nc2cccnc2)c(=O)c2ccccc12 [Final Cpd 13] | > 20000 nM | > 20000 nM | – | –
CC(C)c1nn(CC(=O)N[C@@H]2CC[C@@H]2O)c(=O)c2ccc(C(F)(F)F)cc12 [Final Cpd X95] | 1100 nM | > 20000 nM | – | –
CC(C)CN1CCc2cc(NC(=O)Cn3nc(C(C)C)c4cc(C(F)(F)F)ccc4c3=O)ccc21 [Final Cpd X168] | > 20000 nM | > 20000 nM | – | –
CC(C)c1nn(CC(=O)Nc2cc(C#N)c3ncnn3c2)c(=O)c2ccc(C(F)(F)F)cc12 [Final Cpd X162] | 15000 nM | > 20000 nM | – | –
CC(C)(F)c1nn(CC(=O)Nc2ccc3nncn3c2)c(=O)c2ccc(C(F)(F)F)cc12 [Final Cpd X136] | 3770 nM | > 20000 nM | – | –
CC(C)c1nn(CC(=O)Nc2cn3cnnc3cn2)c(=O)c2ccc(C(F)(F)F)cc12 [Final Cpd X14, N-([1,2,4]triazolo[4,3-a]pyrazin-6-yl)-2-(4-isopropyl-1-oxo-6-(trifluoromethyl)phthalazin-2(1H)-yl)acetamide] | 116 nM | > 20000 nM | – | –
CC(C)c1nn(CC(=O)NC2CC(C(F)(F)F)C2)c(=O)c2ccc(C(F)(F)F)cc12 (centres unmarked) [Final Cpd X77] | 830 nM | > 20000 nM | – | –
CC(C)c1nn(CC(=O)Nc2ccc3ncn(C)c3n2)c(=O)c2ccc(C(F)(F)F)cc12 [Final Cpd X47, 2-(4-isopropyl-1-oxo-6-(trifluoromethyl)phthalazin-2(1H)-yl)-N-(3-methyl-3H-imidazo[4,5-b]pyridin-5-yl)acetamide] | 394 nM | > 20000 nM | – | –
CCc1nn(CC(=O)Nc2ccncn2)c(=O)c2ccc(C)cc12 [Final Cpd 4] | 2910 nM | > 10000 nM | – | –
Cc1nnc2cc(NC(=O)Cn3nc(C(C)C)c4cc(C(F)(F)F)ccc4c3=O)ccn12 [Final Cpd X165] | 16100 nM | > 20000 nM | – | –
CC(C)c1nn(CC(=O)Nc2cc(Cl)c(=O)n(C(F)F)c2)c(=O)c2ccc(C(F)(F)F)cc12 [Final Cpd X120] | 2570 nM | > 20000 nM | – | –
CCN1C[C@H](NC(=O)Cn2nc(C(C)C)c3cc(C(F)(F)F)ccc3c2=O)CC(F)(F)C1 [Final Cpd X117] | 2110 nM | > 20000 nM | – | –
Cc1nnc2n1C[C@@H](NC(=O)Cn1nc(C(C)C)c3cc(C(F)(F)F)ccc3c1=O)CC2 (single isomer, unassigned) [Final Cpd X41] | 351 nM | > 20000 nM | – | –

Continued, values first:

IC50 (IL-1β; Homo sapiens, PBMC, 6 h) | EC50 (TNF; Homo sapiens, PBMC, 6 h) | IC50 (IL-1β) | EC50 (TNF) | SMILES
60 nM | > 20000 nM | – | – | CC(C)c1nn(CC(=O)N[C@H]2C[C@@](C)(O)C2)c(=O)c2ccc(Cl)cc12 [X-1027]
41 nM | > 20000 nM | – | – | CC(C)c1nn(CC(=O)Nc2ccc3nncn3c2)c(=O)c2ccc(Cl)cc12 [X-1029]
57 nM | > 20000 nM | – | – | C[C@]1(O)C[C@@H](NC(=O)Cn2nc(C3CC3)c3cc(Br)ccc3c2=O)C1 [X-1022]
224 nM | > 20000 nM | – | – | O=C(Cn1nc(C2CC2)c2cc(Br)ccc2c1=O)Nc1ccc2nncn2n1 [X-1001]
16 nM | 1850 nM | – | – | CC(C)c1nn(CC(=O)Nc2ccc3nncn3c2)c(=O)c2ccc(C(C)(F)F)cc12 [X-1063]
426 nM | > 20000 nM | – | – | CC(C)c1nn(CC(=O)N[C@H]2C[C@@](C)(O)C2)c(=O)c2ccc(C(C)(C)C)cc12 [X-1049]
> 20000 nM | > 20000 nM | – | – | CC(C)c1nn(CC(=O)Nc2ccncn2)c(=O)c2ccc(C#N)cc12 [X-1061]
848 nM | > 20000 nM | – | – | CC(C)c1nn(CC(=O)Nc2ccc3cnn(C)c3c2)c(=O)c2ccc(Br)cc12 [X-1033]
990 nM | > 20000 nM | – | – | CC(C)c1nn(CC(=O)Nc2ccncn2)c(=O)c2ccc(C(C)(C)C)cc12 [X-1050]
101 nM | > 20000 nM | – | – | O=C(Cn1nc(C2CC2)c2cc(Br)ccc2c1=O)Nc1ccc2nncn2c1 [X-1023]
533 nM | 18900 nM | – | – | CC(C)c1nn(CC(=O)Nc2ccnnc2)c(=O)c2ccc(C(C)(F)F)cc12 [X-1064]
1130 nM | 7190 nM | – | – | CC(C)c1nn(CC(=O)Nc2ccc3nncn3c2)c(=O)c2ccc(OC(F)(F)F)cc12 [X-1040]
436 nM | > 20000 nM | – | – | CC(C)c1nn(CC(=O)Nc2ccc3cncn3c2)c(=O)c2ccc(Cl)cc12 [X-1030]
1910 nM | 17500 nM | – | – | COC(C)(C)c1ccc2c(=O)n(CC(=O)Nc3ccc4nncn4c3)nc(C(C)C)c2c1 [X-1057]
40 nM | 9900 nM | – | – | CC(C)c1nn(CC(=O)Nc2ccc3nncn3n2)c(=O)c2ccc(C(C)(F)F)cc12 [X-1003]
17 nM | 3110 nM | – | – | CC(C)c1nn(CC(=O)Nc2ccc3nncn3n2)c(=O)c2ccc(C(C)(C)F)cc12 [X-1010]
9790 nM | > 20000 nM | – | – | CC(O)c1nn(CC(=O)Nc2ccn(C(C)C)n2)c(=O)c2ccc(Br)cc12 (centres unmarked) [X-1079, 2-(6-bromo-4-(1-hydroxyethyl)-1-oxophthalazin-2(1H)-yl)-N-(1-isopropyl-1H-pyrazol-3-yl)acetamide]
